Calls of active or inactive are those of the source. Rule as the data show it: active = AC50 below about 11 µM.

The test relates to B cell line, TNFa signaling counterscreen reporter. In words: TNFa pathway inhibition counter-screen, B-lineage cells – dose response (AID 1259334).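 Also: cells stimulated with TNFa after compound preincubation.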 A general note: The purpose of a counterscreen is to sort out artefacts and off-target activity.
As a reminder, the AC50 is the concentration at which the activity in the assay is half-maximal. Regarding `CNC(=S)NN=C(C)CCCC(C)=NNC(=S)NC`, the AC50 was 2.47 µM.

For the molecule `C[C@H](CO)N1C[C@H](C)[C@@H](CN(C)Cc2cccc(C(F)(F)F)c2)OCc2ccccc2-c2c(n(C)c3ccccc23)C1=O`, the AC50 was 8.03 µM.

Regarding `Cc1cc(C(=O)COC(=O)CNC(=O)c2ccccc2)c(C)n1CC1CCCO1` (centres undefined), the concentration at half-maximal activity (AC50) was 5.61 µM.

In the case of `CC(=O)O[C@H]1C[C@H](O[C@H]2[C@@H](O)C[C@H](O[C@H]3[C@@H](O)C[C@H](O[C@H]4CC[C@@]5(C)C(CCC6C5C[C@@H](O)[C@]5(C)[C@@H](C7=CC(=O)OC7)CC[C@]65O)C4)O[C@@H]3C)O[C@@H]2C)O[C@H](C)[C@H]1O[C@@H]1O[C@H](CO)[C@@H](O)[C@H](O)[C@H]1O` (some centres undefined), the half-maximal activity concentration (AC50) is 1.01 µM.

Take `O=C(Nc1ccc(C(F)(F)F)cc1)N1C[C@@H]2N[C@H](C1)C2c1ccc(-c2ccccc2)cc1` (some centres undefined): the AC50 was 3.28 µM.

`O=[N+]([O-])c1ccc(N2CCOCC2)c2c1no[n+]2[O-]`: the AC50 was 6.5 µM.

`COc1ccc(C[C@H]2NC[C@H](O)[C@H]2OC(C)=O)cc1`: the AC50 was 0.0144 µM.

For the molecule `C=C1C(=O)C23C(O)C1CCC2C12CCCC(C)(COC(C)=O)C1C(O)C3(O)OC2` (centres undefined), the AC50 was 0.507 µM.

Regarding `c1ccc(-c2ccc(-c3ccccn3)nn2)nc1`, the AC50 is 6.99 µM.

Regarding `O=C(C#Cc1ccccc1)c1ccccc1`, the half-maximal activity concentration (AC50) was 5.68 µM.

Regarding `N#C[C@@H]1[C@H](c2ccc(C#Cc3ccccc3F)cc2)[C@@H](CO)N1C(=O)C1CC1`, the concentration at half-maximal activity (AC50) is 3.39 µM.

As for `C[C@H]1CN([C@@H](C)CO)C(=O)Cc2cc(NS(=O)(=O)c3cccs3)ccc2O[C@@H]1CN(C)Cc1ccc(Cl)c(Cl)c1`, the concentration at half-maximal activity (AC50) was 7.19 µM.

For `C[C@@H]1CN([C@@H](C)CO)C(=O)c2c(c3ccccc3n2C)-c2ccccc2CO[C@@H]1CN(C)C(=O)Nc1ccccc1C(F)(F)F`, the AC50 is 7.57 µM.

Take `Cc1ccc(C(OCC(O)CNCc2ccc(F)cc2)c2ccccc2)cc1` (centres undefined): the AC50 was 7.2 µM.

In the case of `O=C1C(O)CC2c3ccccc3CC3(CCCC3)N12` (centres undefined), the AC50 is > 20 µM (inactive).

`N#C[C@H]1[C@H](c2ccc(C#Cc3ccccc3F)cc2)[C@@H](CO)N1C(=O)c1cccnc1`: the concentration at half-maximal activity (AC50) was 9.37 µM.

For `COc1ccc(C#Cc2ccc([C@@H]3[C@H](CO)N4CCCCN(C(=O)Nc5cccc(F)c5)C[C@@H]34)cc2)cc1`, the AC50 is 4.57 µM.

On to `C1CCC(C(CC2CCCCN2)C2CCCCC2)CC1` (centres undefined), for which the AC50 was 2.75 µM.

As to `C[C@@H]1C[C@@H]([C@H](O)CC2CC(=O)NC(=O)C2)C(=O)[C@@H](C)C1`, the AC50 is 0.199 µM.

As to `CCCCn1c(NC(=O)c2ccc(Br)o2)c(S(=O)(=O)c2ccccc2)c2nc3ccccc3nc21`, the AC50 was 9.82 µM.

Take `Cc1[nH]c2ccccc2c1C(c1ccccn1)N1CCC(C(N)=O)CC1` (centres undefined): the half-maximal activity concentration (AC50) is 6 µM.

Consider `O=C(c1nnsc1S(=O)(=O)c1ccc(Cl)cc1)N1CCOCC1`, for which the concentration at half-maximal activity (AC50) was 2.07 µM.

For the molecule `C[C@@H]1CCCCO[C@@H](CN(C)Cc2ccc(Cl)c(Cl)c2)[C@H](C)CN([C@H](C)CO)C(=O)c2cc(NS(=O)(=O)c3cccs3)ccc2O1`, the AC50 is 6.39 µM.

As for `c1cc(-c2cnn3cc(-c4ccc(OCCN5CCCCC5)cc4)cnc23)ccn1`, the AC50 was 1.13 µM.

With `CC(=O)OC1CC2(O)C3CCC4CC(O)CCC4(C)C3CCC2(C)C1C1=CC(=O)OC1` (centres undefined), the concentration at half-maximal activity (AC50) is 0.839 µM.

For `C[C@@H]1CN([C@@H](C)CO)C(=O)c2c(c3ccccc3n2C)-c2ccccc2CO[C@@H]1CN(C)Cc1ccccc1C(F)(F)F`, the AC50 is > 20 µM (inactive).

Turning to `O=C(Nc1ccccc1)N1CC(=O)N2[C@H](CO)[C@@H](c3ccc(C#CC4CCCCC4)cc3)[C@H]2C1`, the AC50 was 11.5 µM.

`[O-]C(=C(C(=S)Nc1cccc2ccccc12)[n+]1ccccc1)c1ccc2c(c1)OCCO2`: the AC50 is > 20 µM (inactive).

Turning to `c1ccc(-c2nnc(-c3ccccn3)nn2)nc1`, the AC50 was 11.4 µM.

For `CC1CC(C)(O)CC(C(O)CC2CC(=O)NC(=O)C2)C1=O` (centres undefined), the concentration at half-maximal activity (AC50) is 0.0899 µM.

Regarding `N#Cc1cccc(-c2ccc(C3[C@H]4CNC[C@@H]3N4Cc3ccc4c(c3)OCO4)cc2)c1` (some centres undefined), the AC50 was 6.32 µM.

As for `COc1ccc(S(=O)(=O)Nc2ccc3c(c2)C(=O)N([C@@H](C)CO)C[C@@H](C)[C@H](CN(C)Cc2ccc(C(F)(F)F)cc2)OCCCC[C@@H](C)O3)cc1`, the concentration at half-maximal activity (AC50) is 8.32 µM.

Turning to `Cc1nc(C)c(C(=O)Nc2ncc([N+](=O)[O-])s2)o1`, the concentration at half-maximal activity (AC50) was 8.61 µM.

In the case of `CCC1=C(CC2NCCc3ccccc32)CC2c3cc(OC)c(OC)cc3CCN2C1` (centres undefined), the AC50 is 1.19 µM.

As for `C[C@@H]1CN([C@@H](C)CO)C(=O)c2c(c3ccccc3n2C)-c2ccccc2CO[C@H]1CN(C)Cc1ccccc1`, the AC50 was 5.53 µM.

As for `COc1ccc(CNCCC(c2ccc(F)cc2)c2ccc(OC(C)C)cc2)cc1OC` (centres undefined), the AC50 was 3.5 µM.

Consider `CC(C)C1CC(N(C)C)=CC(=S)N1` (centres undefined), for which the AC50 is 10.7 µM.

`C[C@@H]1CCCCO[C@H](CN(C)CC2CCCCC2)[C@H](C)CN([C@@H](C)CO)C(=O)c2cc(NC(=O)Nc3ccc(C(F)(F)F)cc3)ccc2O1`: the AC50 was > 20 µM (inactive).

With `N#C[C@@H]1[C@H](c2ccc(C#Cc3ccccc3F)cc2)[C@@H](CO)N1C(=O)c1cccnc1`, the AC50 was 6.76 µM.

With `C[C@@H]1O[C@@H](O[C@H]2C[C@@H](O)[C@]3(CO)[C@H]4[C@H](O)C[C@]5(C)[C@@H](C6COC(=O)C6)CC[C@]5(O)[C@@H]4CC[C@]3(O)C2)[C@H](O)[C@H](O)[C@H]1O` (some centres undefined), the half-maximal activity concentration (AC50) was 2.76 µM.

Regarding `O=C(Nc1ccc2c(c1)OCCO2)C1CCCC1`, the AC50 is 1.76 µM.

As for `O=S(=O)(CCSc1ccccn1)c1nc2ccccc2s1`, the AC50 is 5.13 µM.

For `C[C@H]1CN([C@@H](C)CO)C(=O)c2c(c3ccccc3n2C)-c2ccccc2CO[C@H]1CN(C)C(=O)Nc1cccc(C(F)(F)F)c1`, the AC50 was > 20 µM (inactive).

As for `O=C1CCCCC1Sc1nnc(-c2ccc3c(c2)OCO3)o1` (centres undefined), the AC50 was 0.871 µM.

Take `Oc1c(Cl)cc(Cl)cc1Sc1cc(Cl)cc(Cl)c1O`: the half-maximal activity concentration (AC50) was 3.41 µM.

For `CSc1ccc2c(c1)N(CCC1CCCCN1C)c1ccccc1S2` (centres undefined), the AC50 is 6.07 µM.

Take `O=C(Nc1ccc(C(F)(F)F)cc1)Nc1ccc2c(c1)[C@H]1C[C@@H](CC(=O)N3CCc4ccccc4C3)O[C@H](CO)[C@H]1O2`: the AC50 is 10.7 µM.

For the molecule `CC1CC(C)C(=O)C(C(O)CC2CC(=O)NC(=O)C2)C1` (centres undefined), the AC50 was 0.115 µM.

`COc1ccc(-c2cc(-c3ccccc3)c(C#N)c(S(C)=O)n2)cc1` (centres undefined): the concentration at half-maximal activity (AC50) is 1.53 µM.

Turning to `CC1CNCCN1S(=O)(=O)c1cccc2cnccc12` (centres undefined), the half-maximal activity concentration (AC50) is 7.79 µM.

On to `Cc1ccccc1C(=O)N1CCC(C(=O)Nc2nc3ccc(F)cc3s2)CC1`, for which the half-maximal activity concentration (AC50) is 7.86 µM.

For the molecule `C[C@H]1O[C@@H](O[C@H]2[C@@H](O)C[C@H](O[C@H]3[C@@H](O)C[C@H](O[C@H]4CC[C@]5(C)C6C[C@@H](O)[C@]7(C)[C@@H](C8=CC(=O)OC8)CC[C@]7(O)C6CC[C@@H]5C4)O[C@@H]3C)O[C@@H]2C)C[C@H](O)[C@@H]1O` (some centres undefined), the AC50 is 0.697 µM.

Consider `CC(C)OC(=O)c1cn(Cc2c(F)cccc2F)c2sc(-c3ccc(NC(=O)C(C)C)cc3)c(CN(C)Cc3ccccc3)c2c1=O`, for which the concentration at half-maximal activity (AC50) was 8.24 µM.

On to `C[C@@H]1O[C@@H](O[C@H]2C[C@@H](O)[C@]3(CO)C4C(CC[C@]3(O)C2)[C@@]2(O)CC[C@H](C3=CC(=O)OC3)[C@@]2(C)C[C@H]4O)[C@H](O)[C@H](O)[C@H]1O` (some centres undefined), for which the half-maximal activity concentration (AC50) is 0.138 µM.

Regarding `C[C@@H]1CN([C@@H](C)CO)C(=O)Cc2cc(NS(=O)(=O)c3ccc(F)cc3)ccc2O[C@H]1CN(C)Cc1ccc(C(F)(F)F)cc1`, the AC50 was 5.36 µM.

For `Cc1c(CCOC(=O)CC23CC4CC(CC(C)(C4)C2)C3)sc[n+]1CC(=O)c1ccccc1`, the AC50 is 1.81 µM.

Regarding `O=S(=O)(/C(=C\c1ccc(C(F)(F)F)cc1)c1nc2ccccc2[nH]1)c1ccccc1`, the half-maximal activity concentration (AC50) is 0.497 µM.

Regarding `C[C@H]1CN([C@@H](C)CO)C(=O)c2ccccc2-c2ccccc2CO[C@@H]1CN(C)Cc1ccccc1C(F)(F)F`, the concentration at half-maximal activity (AC50) is 7.26 µM.

`COc1ccc(S(=O)(=O)Nc2ccc3c(c2)C(=O)N([C@H](C)CO)C[C@H](C)[C@@H](CN(C)Cc2ccc(C(F)(F)F)cc2)OCCCC[C@@H](C)O3)cc1`: the AC50 is 8.37 µM.

On to `CC(C)(C)[S@](=O)N1Cc2cc(C(=O)NCC(F)(F)F)nc(-c3cccc(-c4cccc(F)c4)c3)c2[C@@H]1CCO`, for which the AC50 is > 20 µM (inactive).

As for `C[C@H]1O[C@@H](O[C@H]2[C@@H](O)C[C@H](O[C@H]3[C@@H](O)C[C@H](O[C@H]4CC[C@]5(C)C6CC[C@]7(C)[C@@H](C8=CC(=O)OC8)CC[C@]7(O)C6CC[C@@H]5C4)O[C@@H]3C)O[C@@H]2C)C[C@H](O)[C@@H]1O` (some centres undefined), the AC50 is 0.444 µM.

In the case of `O=C1CC(=O)OC(c2ccc([N+](=O)[O-])cc2)O1`, the AC50 is 1.09 µM.

Regarding `C[C@@H]1CN([C@@H](C)CO)C(=O)c2c(c3ccccc3n2C)-c2ccccc2CO[C@@H]1CN(C)C(=O)c1cc(Cl)cc(Cl)c1`, the AC50 is > 20 µM (inactive).

`O=C(COc1cccnc1[N+](=O)[O-])c1ccc(Cl)s1`: the concentration at half-maximal activity (AC50) was 4.71 µM.

Regarding `O=C(NC(=S)/C(=C1\CCCCCN1)[N+](=O)[O-])c1ccccc1`, the half-maximal activity concentration (AC50) is 0.12 µM.

For the molecule `CCCn1c(NC(=O)c2cccc(S(=O)(=O)N3CCCC3)c2)nc2ccccc21`, the half-maximal activity concentration (AC50) is 2.61 µM.

Take `COc1ccc(CN2CC3(CN(C(=O)Cc4ccccc4)C3)c3c([nH]c4cc(OC)ccc34)[C@@H]2CO)cc1`: the AC50 is > 20 µM (inactive).

As for `Cc1cccc(-c2ccc(C3[C@@H]4CN(C(=O)Nc5ccc(C(F)(F)F)cc5)C[C@H]3N4)cc2)c1` (some centres undefined), the AC50 is > 20 µM (inactive).

With `COc1cccc(S(=O)(=O)N(C)C[C@H]2OCc3ccccc3-c3c(n(C)c4ccccc34)C(=O)N([C@@H](C)CO)C[C@@H]2C)c1`, the AC50 is > 20 µM (inactive).

For the molecule `COc1ccc(C#Cc2ccc([C@H]3[C@H]4CN(C(=O)c5ccncc5)CCCCN4[C@H]3CO)cc2)cc1`, the AC50 is 8.29 µM.

Consider `CC[C@H]1CN2CCc3cc(OC)c(OC)cc3C2C[C@@H]1CC1NCCc2cc(OC)c(OC)cc21` (some centres undefined), for which the concentration at half-maximal activity (AC50) is 0.011 µM.

As to `O=C(COC(=O)c1ccccc1C(=O)c1ccc(Cl)c([N+](=O)[O-])c1)NC1CC1`, the half-maximal activity concentration (AC50) is 1.47 µM.

Take `Clc1ccc(CSC(Cn2ccnc2)c2ccc(Cl)cc2Cl)cc1` (centres undefined): the AC50 is > 20 µM (inactive).

On to `CC1CCOC(=O)C=CC=CC(=O)OC2CC3OC4C5OC5(C)C(O)CC4(COC(=O)C1O)C2(C)C31CO1` (centres undefined), for which the AC50 is 0.0338 µM.

Source of the values: PubChem BioAssay AID1259334 (Broad Institute, 2017).
